Active and inactive are the calls of the source. The calls are words filed in the database; no cut-off is given here.
Assays:
[1] = target: T1, Peroxisome proliferator-activated receptor gamma (Homo sapiens, UniProt P37231); assay: Agonist activity at PPARgamma by SPA assay; assay type: functional
T1 sequence (P37231 whole entry): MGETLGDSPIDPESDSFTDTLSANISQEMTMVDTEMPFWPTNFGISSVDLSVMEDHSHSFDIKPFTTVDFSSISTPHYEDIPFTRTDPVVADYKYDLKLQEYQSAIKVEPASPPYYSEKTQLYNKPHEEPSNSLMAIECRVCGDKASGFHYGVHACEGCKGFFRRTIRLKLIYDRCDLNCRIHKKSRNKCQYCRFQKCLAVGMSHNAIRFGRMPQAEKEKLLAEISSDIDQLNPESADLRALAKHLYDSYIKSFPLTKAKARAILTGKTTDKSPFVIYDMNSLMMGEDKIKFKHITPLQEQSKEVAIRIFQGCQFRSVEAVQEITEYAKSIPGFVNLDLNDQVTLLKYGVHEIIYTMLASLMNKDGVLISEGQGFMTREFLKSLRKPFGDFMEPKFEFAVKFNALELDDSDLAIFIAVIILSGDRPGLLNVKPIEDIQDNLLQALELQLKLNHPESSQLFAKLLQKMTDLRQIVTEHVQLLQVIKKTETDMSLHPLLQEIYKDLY

[2] = test system: Rattus norvegicus; assay: Reduction of serum direct bilirubin level in alpha-naphthyl-isothiocyanate-induced rat acute cholestasis model at 100 to 300 mg/kg, po bid for 4 days dosed before 2 days induction by alpha-naphthyl-isothiocyanate; assay type: functional, organism-based

XC50 [1]: > 10 µM
Compound: CC(C)c1onc(-c2c(Cl)cccc2Cl)c1COc1ccc(-c2ccc3c(C(=O)O)cccc3c2)cc1
Activity [2]: Active

— ChEMBL document CHEMBL1155854, “Conformationally constrained farnesoid X receptor (FXR) agonists: Naphthoic acid-based analogs of GW 4064” (Bioorg Med Chem Lett, 2008)
